The source made the active and inactive calls. No cut-off for these calls is given here.
Assays:
Pseudomonas aeruginosa = experiment: MIC per disc against Pseudomonas aeruginosa by disc diffusion method; format: functional
[1] = tested on: Streptomyces thermovulgaris; experiment: MIC per disc against Streptomyces thermonitrificans by disc diffusion method; format: functional
Escherichia coli = experiment: MIC per disc against Escherichia coli by disc diffusion method; format: functional
Staphylococcus aureus = experiment: MIC per disc in Staphylococcus aureus by disc diffusion method; format: functional
Salmonella typhi = experiment: MIC per disc against Salmonella typhi by disc diffusion method; format: functional, Salmonella enterica subsp. enterica serovar Typhi
RBCs = experiment: Cytotoxicity against erythrocytes by haemolytic assay at upto 500 ug/ml; format: functional, Erythrocyte
[2] = Salmonella enterica subsp. enterica serovar Typhi

| Molecule | MIC (Pseudomonas aeruginosa) | MIC [1] | MIC (Escherichia coli) | MIC (Staphylococcus aureus) | MIC (Salmonella typhi) [µg] | Activity (RBCs) [%] | MIC (Salmonella typhi; [2]) |
| --- | --- | --- | --- | --- | --- | --- | --- |
| C[C@H]1c2cccc(O)c2C(=O)C2=C(O)[C@]3(O)C(=O)C(C(N)=O)=C(O)[C@@H](N(C)C)[C@@H]3[C@@H](O)[C@@H]21.Cl [DOXYCYCLINE HYDROCHLORIDE] | 1 µg | 1 µg | 2 µg | 1 µg | 1 |  |  |
| Cc1c2n(c3ccccc13)CCN(CC#N)C2 | 60 µg | 30 µg | inactive | 15 µg | 30 |  |  |
| Cc1c2n(c3ccccc13)CCNC2c1ccc([N+](=O)[O-])cc1 (stereo not drawn) | 30 µg | 15 µg | 30 µg | 30 µg | 30 | 5 |  |
| Cc1cn2c(cc3ccccc32)c(-c2ccccc2)n1 | 60 µg | 60 µg | 60 µg | 60 µg | 60 |  |  |
| Cc1c2n(c3ccccc13)CCNC2c1cccs1 (stereo not drawn) | inactive | inactive | inactive | 60 µg | 30 |  |  |
| Cc1c2n(c3ccccc13)CCNC2c1ccc(Br)cc1 (stereo not drawn) | 60 µg | 15 µg | inactive | 15 µg | 60 |  |  |
| Cc1c2n(c3ccccc13)CCNC2c1ccc(F)cc1 (stereo not drawn) | 30 µg | 7.5 µg | 15 µg | 30 µg | 30 | 5 |  |
| Cc1c2n(c3ccccc13)CCNC2c1ccccc1 (stereo not drawn) | 3.75 µg | inactive | inactive | inactive |  |  | inactive |
| Cc1c2n(c3ccccc13)CCN(Cn1nnc3ccccc31)C2 | inactive | inactive | inactive | 30 µg | 60 |  |  |
| Cc1cn2c(cc3ccccc32)c(C)n1 | 60 µg | 60 µg | 60 µg | 60 µg | 60 |  |  |
| Cc1c2n(c3ccccc13)CCNC2c1ccccn1 (stereo not drawn) | inactive | inactive | inactive | 3.75 µg |  |  | inactive |
| Cc1c2n(c3ccccc13)CCNC2c1cccc(Cl)c1 (stereo not drawn) | 15 µg | 3.75 µg | inactive | inactive |  |  | inactive |
| CCOP(=O)(CN1CCn2c(c(C)c3ccccc32)C1)OCC | 60 µg | 60 µg | inactive | inactive |  |  | inactive |
| Cc1ccc(C2NCCn3c2c(C)c2ccccc23)cc1 (stereo not drawn) | 60 µg | 30 µg | 15 µg | 30 µg | 15 | 5 |  |
| Cc1c2n(c3ccccc13)CCN(Cc1ccccc1)C2 | 60 µg | 60 µg | inactive | 15 µg | 60 |  |  |
| GENTAMICIN | 0.5 µg | 1 µg | 1 µg | 1 µg |  |  | 1 µg |
| Cc1ccc(CN2CCn3c(c(C)c4ccccc43)C2)cc1 | 60 µg | 60 µg | inactive | 15 µg | 30 |  |  |
| Cc1c2n(c3ccccc13)CCN(C)C2 | 30 µg | 30 µg | inactive | 30 µg | 30 |  |  |
| COc1cccc(C2NCCn3c2c(C)c2ccccc23)c1 (stereo not drawn) | inactive | 15 µg | 30 µg | 60 µg | 30 |  |  |

Reference: ChEMBL document CHEMBL1147777, “Synthesis and antibacterial activity of substituted 1,2,3,4-tetrahydropyrazino [1,2-a] indoles” (2006)
